Laboratory results taken from ChEMBL document CHEMBL1201862, “PubChem BioAssay data set” (2004).
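Dose response: 5 concentrations. Exposure: 48 h. Format: 96-well plates. Endpoint: linear interpolation; highest concentration if not reached. Abbreviation: GI50, concentration required for 50% inhibition of growth.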 Calls of active or inactive are those of the source. Rule as the data show it: active = GI50 up to about 1.1 µM and inactive = higher. Where a SMILES comes first, the peptide text is derived from it. The star is where a group is joined. Boc = CC(C)(C)OC(=O)*

Assays:
Experiment in all cases: inhibition of tumour cell growth, NCI panel, 48 h
SNB-75 = test system: SNB-75
U-251 = test system: U-251
MDA-MB-231 = test system: MDA-MB-231
NCI-H460 = test system: NCI-H460
UACC-62 = test system: UACC-62
MDA-MB-435 = test system: MDA-MB-435
CCRF-CEM = test system: CCRF-CEM
T47D = test system: T47D
MCF7 = test system: MCF7
PC-3 = test system: PC-3
M14 = test system: M14
A498 = test system: A498
RXF 393 = test system: RXF 393
NCI-H23 = test system: NCI-H23
HT-29 = test system: HT-29
UO-31 = test system: UO-31
NCI-H522 = test system: NCI-H522
HCC 2998 = test system: HCC 2998
HOP-92 = test system: HOP-92
Hs-578T = test system: Hs-578T

Which GI50 (SNB-75) does the source give for N#Cc1c(-c2ccc([N+](=O)[O-])cc2)cc(-c2ccc(Nc3ccnc4cc(C(F)(F)F)ccc34)cc2)[nH]c1=O here?
Its GI50 is > 100 µM (inactive).

And the GI50 (U-251)?
The GI50 was 10 µM (inactive).

And the GI50 (MDA-MB-231)?
The GI50 was 16.3 µM (inactive).

And the GI50 (NCI-H460)?
Its GI50 is > 100 µM (inactive).

What about the GI50 (UACC-62) of the same compound?
Its GI50 is > 100 µM (inactive).

And the GI50 (MDA-MB-435)?
Its GI50 is > 100 µM (inactive).

What about the GI50 (CCRF-CEM) of the same compound?
The GI50 was > 100 µM (inactive).

What about the GI50 (T47D) of the same compound?
The GI50 was > 100 µM (inactive).

And the GI50 (MCF7)?
The GI50 was > 100 µM (inactive).

What about the GI50 (PC-3) of the same compound?
The GI50 was > 100 µM (inactive).

And the GI50 (M14)?
The GI50 was 80.9 µM (inactive).

What about the GI50 (A498) of the same compound?
The GI50 was > 100 µM (inactive).

What about the GI50 (RXF 393) of the same compound?
The GI50 was > 100 µM (inactive).

What about the GI50 (NCI-H23) of the same compound?
Its GI50 is > 100 µM (inactive).

And the GI50 (HT-29)?
Its GI50 is 92.9 µM (inactive).

What about the GI50 (UO-31) of the same compound?
The GI50 was > 100 µM (inactive).

And the GI50 (NCI-H522)?
Its GI50 is > 100 µM (inactive).

And the GI50 (HCC 2998)?
Its GI50 is > 100 µM (inactive).

Which GI50 (SNB-75) does the source give for CC(C)(C)OC(=O)NC(Cc1ccc(O)cc1)C(=O)N1CCCC1C(=O)O (stereo not drawn) (Boc-Tyr-Pro-OH; configuration not given here) here?
Its GI50 is > 100 µM (inactive).

And the GI50 (U-251)?
The GI50 was > 100 µM (inactive).

And the GI50 (NCI-H460)?
Its GI50 is > 100 µM (inactive).

And the GI50 (UACC-62)?
Its GI50 is > 100 µM (inactive).

And the GI50 (CCRF-CEM)?
Its GI50 is > 100 µM (inactive).

And the GI50 (M14)?
Its GI50 is > 100 µM (inactive).

And the GI50 (A498)?
The GI50 was > 100 µM (inactive).

And the GI50 (RXF 393)?
Its GI50 is > 100 µM (inactive).

What about the GI50 (NCI-H23) of the same compound?
Its GI50 is > 100 µM (inactive).

And the GI50 (HOP-92)?
The GI50 was > 100 µM (inactive).

And the GI50 (HT-29)?
Its GI50 is > 100 µM (inactive).

What about the GI50 (UO-31) of the same compound?
Its GI50 is > 100 µM (inactive).

And the GI50 (NCI-H522)?
Its GI50 is > 100 µM (inactive).

What about the GI50 (HCC 2998) of the same compound?
Its GI50 is > 100 µM (inactive).

How did the GI50 (SNB-75) turn out when O=S(=O)(O)CS(=O)(=O)OCCCl was run?
The GI50 was > 100 µM (inactive).

What about the GI50 (U-251) of the same compound?
The GI50 was > 100 µM (inactive).

What about the GI50 (NCI-H460) of the same compound?
Its GI50 is > 100 µM (inactive).

What about the GI50 (UACC-62) of the same compound?
The GI50 was > 100 µM (inactive).

What about the GI50 (M14) of the same compound?
Its GI50 is > 100 µM (inactive).

And the GI50 (A498)?
The GI50 was > 100 µM (inactive).

What about the GI50 (RXF 393) of the same compound?
Its GI50 is > 100 µM (inactive).

And the GI50 (NCI-H23)?
The GI50 was > 100 µM (inactive).

And the GI50 (HOP-92)?
The GI50 was > 100 µM (inactive).

What about the GI50 (HT-29) of the same compound?
Its GI50 is > 100 µM (inactive).

And the GI50 (UO-31)?
The GI50 was > 100 µM (inactive).

And the GI50 (NCI-H522)?
The GI50 was > 100 µM (inactive).

What about the GI50 (HCC 2998) of the same compound?
The GI50 was > 100 µM (inactive).

Which results are given for CC(C)(O)CCc1ccc(O)c2c(=O)c3c(O)c4c(cc3oc12)O[C@H]1OC=C[C@@]41O [AUSTOCYSTIN D]?
GI50 (SNB-75): 0.0562 µM (active); GI50 (U-251): < 0.01 µM (active); GI50 (MDA-MB-231): 2.26 µM (inactive); GI50 (NCI-H460): 0.0507 µM (active); GI50 (UACC-62): < 0.01 µM (active); GI50 (MDA-MB-435): < 0.01 µM (active); GI50 (CCRF-CEM): 9.79 µM (inactive); GI50 (MCF7): < 0.01 µM (active); GI50 (PC-3): 0.119 µM (active); GI50 (M14): 0.411 µM (active); GI50 (A498): < 0.01 µM (active); GI50 (RXF 393): 0.148 µM (active); GI50 (Hs-578T): 10.2 µM (inactive); GI50 (NCI-H23): < 0.01 µM (active); GI50 (HOP-92): 0.251 µM (active); GI50 (HT-29): 1.24 µM (inactive); GI50 (UO-31): < 0.01 µM (active); GI50 (NCI-H522): 5.27 µM (inactive); GI50 (HCC 2998): < 0.01 µM (active)

CC(=O)Oc1ccc2[nH]c3c(C)c4cccc-4ccc3c2c1 was tested. Which GI50 (NCI-H460) did it give?
Its GI50 is 2.94 µM (inactive).

And the GI50 (UACC-62)?
The GI50 was 1.81 µM (inactive).

And the GI50 (MDA-MB-435)?
Its GI50 is 2 µM (inactive).

What about the GI50 (T47D) of the same compound?
The GI50 was 2.43 µM (inactive).

And the GI50 (MCF7)?
Its GI50 is 2.65 µM (inactive).

What about the GI50 (PC-3) of the same compound?
The GI50 was 1.87 µM (inactive).

And the GI50 (M14)?
Its GI50 is 2.17 µM (inactive).

What about the GI50 (A498) of the same compound?
Its GI50 is 2.1 µM (inactive).

What about the GI50 (RXF 393) of the same compound?
Its GI50 is 1.82 µM (inactive).

What about the GI50 (Hs-578T) of the same compound?
Its GI50 is 2.64 µM (inactive).

And the GI50 (NCI-H23)?
The GI50 was 1.99 µM (inactive).

What about the GI50 (HOP-92) of the same compound?
The GI50 was 2.12 µM (inactive).

And the GI50 (HT-29)?
The GI50 was 2.02 µM (inactive).

What about the GI50 (UO-31) of the same compound?
The GI50 was 1.76 µM (inactive).

And the GI50 (NCI-H522)?
The GI50 was 1.63 µM (inactive).

And the GI50 (HCC 2998)?
Its GI50 is 2.18 µM (inactive).

CCNCCNC(=O)c1ccc(Br)cc1 was tested. Which GI50 (SNB-75) did it give?
Its GI50 is 63.4 µM (inactive).

What about the GI50 (U-251) of the same compound?
The GI50 was > 100 µM (inactive).

What about the GI50 (NCI-H460) of the same compound?
The GI50 was > 100 µM (inactive).

What about the GI50 (UACC-62) of the same compound?
Its GI50 is > 100 µM (inactive).

And the GI50 (CCRF-CEM)?
Its GI50 is > 100 µM (inactive).

And the GI50 (MCF7)?
The GI50 was > 100 µM (inactive).

And the GI50 (PC-3)?
Its GI50 is > 100 µM (inactive).

And the GI50 (M14)?
The GI50 was > 100 µM (inactive).

And the GI50 (A498)?
Its GI50 is > 100 µM (inactive).

What about the GI50 (RXF 393) of the same compound?
Its GI50 is > 100 µM (inactive).

And the GI50 (Hs-578T)?
The GI50 was > 100 µM (inactive).

And the GI50 (NCI-H23)?
Its GI50 is > 100 µM (inactive).

And the GI50 (HOP-92)?
The GI50 was > 100 µM (inactive).

And the GI50 (HT-29)?
The GI50 was > 100 µM (inactive).

What about the GI50 (UO-31) of the same compound?
Its GI50 is > 100 µM (inactive).

And the GI50 (HCC 2998)?
Its GI50 is > 100 µM (inactive).

For COc1ccc(CNc2nc(NCc3ccc(OC)cc3)nc(NC(C)C)n2)cc1, which GI50 (SNB-75) is on record?
The GI50 was 7.08 µM (inactive).

And the GI50 (U-251)?
The GI50 was 7.52 µM (inactive).

And the GI50 (NCI-H460)?
Its GI50 is 3.66 µM (inactive).

What about the GI50 (UACC-62) of the same compound?
Its GI50 is 4.28 µM (inactive).

And the GI50 (MDA-MB-435)?
Its GI50 is 3.1 µM (inactive).

And the GI50 (T47D)?
The GI50 was 43.6 µM (inactive).

And the GI50 (MCF7)?
The GI50 was 1.77 µM (inactive).

What about the GI50 (PC-3) of the same compound?
Its GI50 is 3.3 µM (inactive).

And the GI50 (M14)?
Its GI50 is 3.61 µM (inactive).

What about the GI50 (A498) of the same compound?
The GI50 was 4.79 µM (inactive).

What about the GI50 (RXF 393) of the same compound?
The GI50 was 7.08 µM (inactive).

What about the GI50 (Hs-578T) of the same compound?
Its GI50 is 13.5 µM (inactive).

And the GI50 (NCI-H23)?
Its GI50 is 5.21 µM (inactive).

What about the GI50 (HOP-92) of the same compound?
Its GI50 is 3.37 µM (inactive).

What about the GI50 (HT-29) of the same compound?
The GI50 was 5.41 µM (inactive).

And the GI50 (UO-31)?
The GI50 was 19.5 µM (inactive).

And the GI50 (NCI-H522)?
The GI50 was 3.03 µM (inactive).

What about the GI50 (HCC 2998) of the same compound?
The GI50 was 28.6 µM (inactive).

Which results are given for Cc1cc(Cl)ccc1C(=O)c1ccc2ccccc2c1C(=O)O?
GI50 (SNB-75): 85.3 µM (inactive); GI50 (U-251): > 100 µM (inactive); GI50 (MDA-MB-231): > 100 µM (inactive); GI50 (NCI-H460): > 100 µM (inactive); GI50 (UACC-62): > 100 µM (inactive); GI50 (MDA-MB-435): > 100 µM (inactive); GI50 (CCRF-CEM): > 100 µM (inactive); GI50 (T47D): > 100 µM (inactive); GI50 (MCF7): 41.5 µM (inactive); GI50 (PC-3): > 100 µM (inactive); GI50 (M14): > 100 µM (inactive); GI50 (A498): > 100 µM (inactive); GI50 (RXF 393): 39.6 µM (inactive); GI50 (NCI-H23): > 100 µM (inactive); GI50 (HOP-92): > 100 µM (inactive); GI50 (HT-29): > 100 µM (inactive); GI50 (UO-31): > 100 µM (inactive); GI50 (NCI-H522): > 100 µM (inactive); GI50 (HCC 2998): 71.6 µM (inactive)
